We go through 15 compounds from ChEMBL document CHEMBL4765401, “Synthesis, and biological evaluation of 3,6-diaryl-[1,2,4]triazolo[4,3-a]pyridine analogues as new potent tubulin polymerization inhibitors” (Eur J Med Chem, 2020).

As a reminder, the pIC50 is −log10 of the IC50, conventionally taken in molar units. A lower pIC50 goes with a high IC50. By inhibition is commonly meant the share of the control response that was lost under treatment.

Test [1] relates to HeLa. The test can be described thus: Antiproliferative activity against human HeLa cells measured after 48 hrs by MTT assay. It is filed as functional, cell-based. A general note: Formazan colour is commonly taken as a measure of viable cells.
The test system of test [2] is T47D. In words: Antiproliferative activity against human T47D cells measured after 48 hrs by MTT assay. It is filed as functional, cell-based.
The test system of test [3] is A549. The test can be described thus: Antiproliferative activity against human A549 cells measured after 48 hrs by MTT assay. It counts as functional, cell-based. The conditions noted are these: A549, 48 h.
Test [4] is filed under the species Sus scrofa. In words: Inhibition of pig brain tubulin polymerization at 10 uM measured at 1 min interval for 20 mins by spectrophotometric method relative to control.
The test system of test [5] is HEK293. The test can be described thus: Cytotoxicity against HEK293 cells measured after 48 hrs by MTT assay. It is filed as cell-based. The conditions noted are these: Homo sapiens, HEK293, 48 h.
Test [6] relates to MCF7. In words: Antiproliferative activity against human MCF7 cells measured after 48 hrs by MTT assay. It counts as functional, cell-based. The conditions noted are these: MCF7, 48 h.
For test [7], the system named is HeLa. In words: Cell cycle arrest in human HeLa cells assessed as decrease in cyclin B1 expression measured after 24 hrs by Western blot analysis. It counts as functional, cell-based.
The subject of test [8] is HeLa. In words: Cell cycle arrest in human HeLa cells assessed as accumulation at G2M phase at 24 nM measured after 24 hrs by propidium iodide staining based flow cytometry (reference value: 11.14%). It counts as functional. (In general: In flow cytometry, cells or beads pass a laser one at a time.)
Test [9] has as its system HeLa. In words: Induction of apoptosis in human HeLa cells measured after 24 hrs by Annexin V-FITC/propidium iodide staining based flow cytometry. It counts as functional, cell-based.
Test [10] relates to HeLa. The test can be described thus: Induction of apoptosis in human HeLa cells assessed as necrotic cells at 48 nM measured after 24 hrs by Annexin V-FITC/propidium iodide staining based flow cytometry (reference value: 0.048%). It is filed as functional.
The subject of test [11] is HeLa. In words: Induction of apoptosis in human HeLa cells assessed as late apoptotic cells at 24 nM measured after 24 hrs by Annexin V-FITC/propidium iodide staining based flow cytometry (reference value: 2.34%). It counts as functional.
The subject of test [12] is HeLa. In words: Induction of apoptosis in human HeLa cells assessed as late apoptotic cells at 12 nM measured after 24 hrs by Annexin V-FITC/propidium iodide staining based flow cytometry (reference value: 2.34%). It is filed as functional.
Test [13] has as its system HeLa. The test can be described thus: Cell cycle arrest in human HeLa cells assessed as accumulation at S phase at 48 nM measured after 24 hrs by propidium iodide staining based flow cytometry (reference value: 19.78%). It counts as functional.
The test system of test [14] is HeLa. The test can be described thus: Induction of apoptosis in human HeLa cells assessed as viable cells at 48 nM measured after 24 hrs by Annexin V-FITC/propidium iodide staining based flow cytometry (reference value: 93.6%). It is filed as functional. The conditions noted are these: read-out: Activity.
In test [15] the test system is HeLa. The test can be described thus: Induction of apoptosis in human HeLa cells assessed as increase in PARP cleavage measured after 24 hrs by Western blot analysis. It is filed as functional, cell-based. For orientation: Immunoblotting shows a protein as a band on a membrane.
Test [16] relates to HeLa. The test can be described thus: Induction of microtubule disruption in human HeLa cells at 12 nM measured after 6 hrs by DAPI staining based immunofluorescence microscopy. It counts as cell-based.
Test [17] has as its system HeLa. The test can be described thus: Cell cycle arrest in human HeLa cells assessed as accumulation at G0/G1 phase at 24 nM measured after 24 hrs by propidium iodide staining based flow cytometry (reference value: 69.08%). It is filed as functional.
Test [18] deals with HeLa. The test can be described thus: Cell cycle arrest in human HeLa cells assessed as decrease in cdc2 expression measured after 24 hrs by Western blot analysis. It is filed as functional, cell-based.
Test [19] relates to HeLa. The test can be described thus: Induction of apoptosis in human HeLa cells assessed as early apoptotic cells at 12 nM measured after 24 hrs by Annexin V-FITC/propidium iodide staining based flow cytometry (reference value: 3.97%). It counts as functional.
For test [20], the system named is HeLa. In words: Cell cycle arrest in human HeLa cells assessed as accumulation at G0/G1 phase at 48 nM measured after 24 hrs by propidium iodide staining based flow cytometry (reference value: 69.08%). It is filed as functional.
The subject of test [21] is HeLa. The test can be described thus: Cell cycle arrest in human HeLa cells assessed as accumulation at S phase at 24 nM measured after 24 hrs by propidium iodide staining based flow cytometry (reference value: 19.78%). It is filed as functional.
Test [22] has as its system HeLa. The test can be described thus: Cell cycle arrest in human HeLa cells assessed as accumulation at G2M phase at 48 nM measured after 24 hrs by propidium iodide staining based flow cytometry (reference value: 11.14%). It is filed as functional.
For test [23], the system named is HeLa. In words: Induction of apoptosis in human HeLa cells assessed as necrotic cells at 24 nM measured after 24 hrs by Annexin V-FITC/propidium iodide staining based flow cytometry (reference value: 0.048%). It is filed as functional.
Test [24] in a line: Inhibition of pig brain tubulin polymerization measured at 1 min interval for 20 mins by spectrophotometric method. Further details: species or system Sus scrofa.
Test [25] relates to HeLa. In words: Induction of apoptosis in human HeLa cells assessed as viable cells at 24 nM measured after 24 hrs by Annexin V-FITC/propidium iodide staining based flow cytometry (reference value: 93.6%). It is filed as functional. The conditions noted are these: read-out: Activity.
Test [26] deals with HeLa. In words: Cell cycle arrest in human HeLa cells assessed as accumulation at G0/G1 phase at 12 nM measured after 24 hrs by propidium iodide staining based flow cytometry (reference value: 69.08%). It counts as functional.
For test [27], the system named is HeLa. In words: Induction of apoptosis in human HeLa cells assessed as early apoptotic cells at 48 nM measured after 24 hrs by Annexin V-FITC/propidium iodide staining based flow cytometry (reference value: 3.97%). It is filed as functional.
The test system of test [28] is HeLa. In words: Induction of apoptosis in human HeLa cells assessed as down regulation of Bcl-2 expression at 12 to 48 nM measured after 24 hrs by Western blot analysis. It is filed as functional, cell-based. The conditions noted are these: dose 12-48 nM.
The test system of test [29] is HeLa. The test can be described thus: Cell cycle arrest in human HeLa cells assessed as accumulation at S phase at 12 nM measured after 24 hrs by propidium iodide staining based flow cytometry (reference value: 19.78%). It is filed as functional.
For test [30], the system named is HeLa. In words: Cell cycle arrest in human HeLa cells assessed as accumulation at G2M phase at 12 nM measured after 24 hrs by propidium iodide staining based flow cytometry (reference value: 11.14%). It is filed as functional.
The test system of test [31] is HeLa. The test can be described thus: Cell cycle arrest in human HeLa cells assessed as increase in accumulation at G2M phase measured after 24 hrs by propidium iodide staining based flow cytometry. It counts as functional.
In test [32] the test system is HeLa. The test can be described thus: Induction of apoptosis in human HeLa cells assessed as necrotic cells at 12 nM measured after 24 hrs by Annexin V-FITC/propidium iodide staining based flow cytometry (reference value: 0.048%). It counts as functional.
The test system of test [33] is HeLa. In words: Induction of apoptosis in human HeLa cells assessed as late apoptotic cells at 48 nM measured after 24 hrs by Annexin V-FITC/propidium iodide staining based flow cytometry (reference value: 2.34%). It is filed as functional.
Test [34] concerns HeLa. The test can be described thus: Induction of apoptosis in human HeLa cells assessed as early apoptotic cells at 24 nM measured after 24 hrs by Annexin V-FITC/propidium iodide staining based flow cytometry (reference value: 3.97%). It counts as functional.
The subject of test [35] is HeLa. The test can be described thus: Induction of apoptosis in human HeLa cells assessed as viable cells at 12 nM measured after 24 hrs by Annexin V-FITC/propidium iodide staining based flow cytometry (reference value: 93.6%). It counts as functional. The conditions noted are these: read-out: Activity.

pIC50: −log10 of the molar value. Activity calls are given as the source filed them. The calls are words filed in the database; no cut-off is given here.

For the compound `COc1cc(-c2nnc3ccc(-c4ccc5ccccc5c4)cn23)cc(OC)c1OC`, the pIC50 in test [1] was less than 4.60.

In the case of `COc1cc(-c2ccc3nnc(-c4ccc(C)cc4)n3c2)cc(OC)c1OC`, in test [1], the pIC50 is less than 4.60.

Consider `COc1ccc(-c2ccc3nnc(-c4cc(OC)c(OC)c(OC)c4)n3c2)cc1O`, for which the negative logarithm of the IC50 (pIC50) in test [1] is 7.35; in test [2] it was less than 4.00; in test [3] it was 4.75; in test [5] it was less than 4.00; in test [6] it was less than 4.00. In addition, the inhibition in test [4] amounted to 14%.

In [1], `COc1ccc(-c2ccc3nnc(-c4cc(OC)c(OC)c(OC)c4)n3c2)cc1` had a pIC50 of 6.71.

With `COc1cc(-c2nnc3ccc(-c4cccnc4OC)cn23)cc(OC)c1OC`, the pIC50 in test [1] is 4.69.

Take `COc1cc(-c2nnc3ccc(-c4ccc(Cl)c(Cl)c4)cn23)cc(OC)c1OC`: in test [1], the pIC50 was 6.46. Against the preceding compound, the pIC50 is 1.77 log units higher.

Turning to `COc1ccc(-c2nnc3ccc(-c4cc(OC)c(OC)c(OC)c4)cn23)cc1[N+](=O)[O-]`, the pIC50 in [1] is less than 4.60.

For the compound `COc1cc(-c2ccc3nnc(-c4ccc(F)cc4)n3c2)cc(OC)c1OC`, in [1], the pIC50 is less than 4.60.

`COc1ccc(-c2nnc3ccc(-c4cc(OC)c(OC)c(OC)c4)cn23)cc1N` gave a negative logarithm of the IC50 (pIC50) in test [1] of 5.40.

As for `COc1cc(C2=NC3=NC(C)=C(C(C)=O)C(c4ccc([N+](=O)[O-])cc4)N3N2)cc(OC)c1OC` (stereo unspecified), the pIC50 in [1] was 6.12; in [5], 4.52.

For the compound `COc1ccc(-c2ccc3nnc(-c4cc(OC)c(OC)c(OC)c4)n3c2)cc1N`, the pIC50 in test [1] is 7.92; in test [2], 4.55; in test [3], 4.98; in test [24], 5.47; in [5], less than 4.00; in test [6], 4.39. Moreover, the Activity entry in test [7] was “Dose-dependent effect”; in test [8], 26%; in [9], “Dose-dependent effect”; in test [10], 0.922%; in test [11], 7.97%; in test [12], 3.23%. Besides, the Activity in test [13] was 5.22%; in test [15], “Dose-dependent effect”; in test [17], 51.59%; in [18], “Dose-dependent effect”; in test [19], 5.21%; in [20], 2.13%. Moreover, the Activity in test [21] is listed as 22.41%; in test [22], 92.65%; in test [23] it was 0.373%; in test [26], 64.07%; in test [27], 36.4%; in test [29], 22.03%. Moreover, the Activity in test [30] was 13.9%; in [31] it was “Dose-dependent effect”; in test [32] it was 0.139%; in [33], 16.9%; in test [34] it was 18.9%. Also, in test [14], the viability at 0.048 µM was found to be 45.8%. In addition, the result in test [16] and in [28] was Active. Also, in test [4], the inhibition came to 81%. Besides, the viability at 0.024 µM in test [25] turned out to be 72.8%. For the same compound, the viability at 0.012 µM in test [35] was 91.4%.

Compound `COc1cc(-c2nnc3ccc(-c4ccc(C(F)(F)F)cc4)cn23)cc(OC)c1OC` showed a negative logarithm of the IC50 (pIC50) in [1] of less than 4.60.

For `COc1cc(-c2nnc3ccc(-c4ccc([N+](=O)[O-])cc4)cn23)cc(OC)c1OC`, the pIC50 in test [1] was 7.64; in [5], less than 4.00.

`COc1cc(F)ccc1-c1ccc2nnc(-c3cc(OC)c(OC)c(OC)c3)n2c1` gave a pIC50 in test [1] of 6.82.

As for `COc1cccc(-c2ccc3nnc(-c4cc(OC)c(OC)c(OC)c4)n3c2)c1`, the pIC50 in [1] was 6.35.
